Results: patent US10695337B2, “Piperidin-4-yl azetidine derivatives as JAK1 inhibitors” (Incyte Corporation, priority 2010, dated 2020)

Target: human JAK1 (a.a. 837-1142)
Test: In vitro JAK kinase assay (HTRF, phosphorylation of a biotinylated peptide), JAK1
Format: biochemical
Conditions: measured at 1 mM ATP; JAK2 IC50 / JAK1 IC50
Method in brief: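 N-terminally His-tagged catalytic domains, baculovirus-expressed in insect cells and purified, were used as enzyme. Reactions ran 1 hr at room temperature and were stopped with a mix of 45 mM EDTA, 300 nM SA-APC and 6 nM Eu-Py20. The HTRF signal was read after 40 min of antibody binding.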

SMILES: N#CCC1(n2cc(-c3ncnc4[nH]ccc34)cn2)CN(C2CCN(C(=O)Nc3ncccc3C(F)(F)F)CC2)C1 [Example 201, 4-{3-(cyanomethyl)-3-[4-(7H-pyrrolo[2,3-d]pyrimidin-4-yl)-1H-pyrazol-1-yl]azetidin-1-yl}-N-[3-(trifluoromethyl)pyridin-2-yl]piperidine-1-carboxamide]
- IC50 Ratio JAK2/JAK1: 3.6

SMILES: N#CCC1(n2cc(-c3ncnc4[nH]ccc34)cn2)CN(C2CCN(C(=O)C3CCC(C(F)(F)F)CC3)CC2)C1 (stereo not shown) [Example 98, [3-[4-(7H-pyrrolo[2,3-d]pyrimidin-4-yl)-1H-pyrazol-1-yl]-1-(1-{[4-(trifluoromethyl)cyclohexyl]carbonyl}piperidin-4-yl)azetidin-3-yl] acetonitrile]
- IC50 Ratio JAK2/JAK1: 3.7

SMILES: N#CCC1(n2cc(-c3c(F)cnc4[nH]ccc34)cn2)CN(C2CCN(C(=O)c3ccncc3F)CC2)C1 [Example 320, {1-[1-(3-fluoroisonicotinoyl)piperidin-4-yl]-3-[4-(5-fluoro-1H-pyrrolo[2,3-b]pyridin-4-yl)-1H-pyrazol-1-yl]azetidin-3-yl}acetonitrile]
- IC50 Ratio JAK2/JAK1: 2.8

SMILES: N#CCC1(n2cc(-c3c(F)cnc4[nH]ccc34)cn2)CN(C2CCN(C(=O)c3cc(C(F)(F)F)ncc3Cl)CC2)C1 [Example 326, {1-{1-[5-chloro-2-(trifluoromethyl)isonicotinoyl]piperidin-4-yl}-3-[4-(5-fluoro-1H-pyrrolo[2,3-b]pyridin-4-yl)-1H-pyrazol-1-yl]azetidin-3-yl}acetonitrile]
- IC50 Ratio JAK2/JAK1: 1.7

SMILES: N#CCC1(n2ccc(-c3ncnc4[nH]ccc34)c2)CN(C2CCN(C(=O)Nc3ccc(Cl)cc3C#N)CC2)C1 [Example 293, 4-{3-(cyanomethyl)-3-[3-(7H-pyrrolo[2,3-d]pyrimidin-4-yl)-1H-pyrrol-1-yl]azetidin-1-yl}-N-(4-chloro-2-cyanophenyl)piperidine-1-carboxamide]
- IC50 Ratio JAK2/JAK1: 3.4

SMILES: N#CCC1(n2ccc(-c3ncnc4[nH]ccc34)c2)CN(C2CCN(C(=O)c3cccc(F)c3F)CC2)C1 [Example 276, {1-[1-(2,3-difluorobenzoyl)piperidin-4-yl]-3-[3-(7H-pyrrolo[2,3-d]pyrimidin-4-yl)-1H-pyrrol-1-yl]azetidin-3-yl}acetonitrile]
- IC50 Ratio JAK2/JAK1: 4.0

SMILES: N#CCC1(n2cc(-c3ncnc4[nH]ccc34)cn2)CN(C2CCN(S(=O)(=O)C3CCCC3)CC2)C1 [Example 253, {1-[1-(cyclopentylsulfonyl)piperidin-4-yl]-3-[4-(7H-pyrrolo[2,3-d]pyrimidin-4-yl)-1H-pyrazol-1-yl]azetidin-3-yl}acetonitrile]
- IC50 Ratio JAK2/JAK1: 5.8

SMILES: Cn1nccc1S(=O)(=O)N1CCC(N2CC(CC#N)(n3cc(-c4ncnc5[nH]ccc45)cn3)C2)CC1 [Example 246, {1-{1-[(1-Methyl-1H-pyrazol-5-yl)sulfonyl]piperidin-4-yl}-3-[4-(7H-pyrrolo[2,3-d]pyrimidin-4-yl)-1H-pyrazol-1-yl]azetidin-3-yl}acetonitrile]
- IC50 Ratio JAK2/JAK1: 7.5

SMILES: CS(=O)(=O)N1CCC(N2CC(CC#N)(n3cc(-c4c(F)cnc5[nH]ccc45)cn3)C2)CC1 [Example 355, {3-[4-(5-Fluoro-1H-pyrrolo[2,3-b]pyridin-4-yl)-1Hpyrazol-1-yl]-1-[1-(methylsulfonyl)piperidin-4-yl]azetidin-3-yl}acetonitrile]
- IC50 Ratio JAK2/JAK1: 3.1

SMILES: N#CCC1(n2cc(-c3ncnc4[nH]ccc34)cn2)CN(C2CCN(C(=O)c3ccc(-c4ccc(C#N)c(F)c4)c(F)c3)CC2)C1 [Example 119, 4′-[(4-{3-(cyanomethyl)-3-[4-(7H-pyrrolo[2,3-d]pyrimidin-4-yl)-1H-pyrazol-1-yl]azetidin-1-yl}piperidin-1-yl)carbonyl]-2′,3-difluorobiphenyl-4-carbonitrile]
- IC50 Ratio JAK2/JAK1: 14.0
